This note sets out measurements from patent US20230033285A1, “Protease Inhibitors for Treatment of Coronavirus Infections” (The Scripps Research Institute, priority 2021, published 2023).

Some results are limits rather than exact numbers.

One assay has as its system SARS-CoV-2. The assay is described as follows: microbe, parasite or virus in culture. It is filed as cell-based. To be noted: Severe acute respiratory syndrome coronavirus 2, HeLa-ACE2, 24 h, read-out: EC50, μM (Hela).
For `CC1(C)[C@@H]2[C@@H](C(=O)N[C@H](C=O)C[C@@H]3CCNC3=O)N(C(=O)COc3ccc(OC(F)(F)F)cc3)C[C@@H]21` [Compound 36, (1R,2S,5S)-6,6-dimethyl-N-((S)-1-oxo-3-((S)-2-oxopyrrolidin-3-yl)propan-2-yl)-3-(2-(4-(trifluoromethoxy)phenoxy)acetyl)-3-azabicyclo[3.1.0]hexane-2-carboxamide], the concentration for a half-maximal effect (EC50) (in general, the midpoint of the concentration-response curve) is 0.2 to 0.5 µM.

For the compound `CC(C)C[C@H](NC(=O)OCc1cccc(Cl)c1)C(=O)N[C@@H](C[C@@H]1CCNC1=O)C(=O)COC(=O)Cc1ccccc1` [Compound 121, (S)-3-((S)-2-((((3-chlorobenzyl)oxy)carbonyl)amino)-4-methylpentanamido)-2-oxo-4-((S)-2-oxopyrrolidin-3-yl)butyl 2-phenylacetate], the EC50 was above 1 µM.

The assay is the same for the next values; noted with them: Severe acute respiratory syndrome coronavirus 2; HeLa-ACE2 cells infected with SARS-CoV-2, 24 h, immunofluorescence of infected cells; read-out: EC50, μM (Hela).
As for `CC(C)C[C@H](NC(=O)C(=O)Nc1ccccc1F)C(=O)N[C@@H](C[C@@H]1CCNC1=O)C(=O)COC(=O)C1CCC(N2CCCCC2)CC1` (stereo partly drawn) [Compound 5, (S)-3-((S)-2-(2-((2-fluorophenyl)amino)-2-oxoacetamido)-4-methylpentanamido)-2-oxo-4-((S)-2-oxopyrrolidin-3-yl)butyl 4-(piperidin-1-yl)cyclohexane-1-carboxylate], the EC50 was 0.2 to 0.5 µM.

Turning to `CC(C)C[C@H](NC(=O)C(=O)NC(C)(C)C)C(=O)N[C@@H](C[C@@H]1CCCNC1=O)C(=O)CO` [Compound 115, N^1-(tert-butyl)-N^2-((S)-1-(((S)-4-hydroxy-3-oxo-1-((S)-2-oxopiperidin-3-yl)butan-2-yl)amino)-4-methyl-1-oxopentan-2-yl)oxalamide], the EC50 is above 1 µM.

Consider `CC(C)C[C@H](NC(=O)c1cc(-c2ccccc2F)on1)C(=O)N[C@H](C=O)C[C@@H]1CCCNC1=O` [Compound 126, 5-(2-fluorophenyl)-N-((S)-4-methyl-1-oxo-1-(((S)-1-oxo-3-((S)-2-oxopiperidin-3-yl)propan-2-yl)amino)pentan-2-yl)isoxazole-3-carboxamide], for which the EC50 lay in the range of 0.05 to 0.2 µM.

In the case of `COc1cccc(NC(=O)C(=O)N[C@@H](CC(C)C)C(=O)N[C@@H](C[C@@H]2CCNC2=O)C(=O)CO)c1` [Compound 9], the EC50 was in the range of 0.05 to 0.2 µM.

As to `CC(C)(NC(=O)C(=O)N1C[C@@H]2CCC[C@@H]2[C@H]1C(=O)N[C@H](C=O)C[C@@H]1CCCNC1=O)C(F)(F)F` [Compound 47, (1S,3aR,6aS)-2-(2-oxo-2-((1,1,1-trifluoro-2-methylpropan-2-yl)amino)acetyl)-N-((S)-1-oxo-3-((S)-2-oxopiperidin-3-yl)propan-2-yl)octahydrocyclopenta[c]pyrrole-1-carboxamide], the EC50 was 0.5 to 1 µM.

As to `O=C(N[C@@H](CC1CC1)C(=O)N[C@@H](C[C@@H]1CCCNC1=O)C(=O)CO)C(=O)NC12CCC(F)(CC1)CC2` [Compound 110, N^1-((S)-3-cyclopropyl-1-(((S)-4-hydroxy-3-oxo-1-((S)-2-oxopiperidin-3-yl)butan-2-yl)amino)-1-oxopropan-2-yl)-N^2-(4-fluorobicyclo[2.2.2]octan-1-yl)oxalamide], the EC50 is above 1 µM.

For `O=C(Nc1ccccc1F)C(=O)N1CC2(CC2)C[C@H]1C(=O)N[C@@H](C[C@@H]1CCNC1=O)C(=O)CO` [Compound 93, (S)-5-(2-((2-fluorophenyl)amino)-2-oxoacetyl)-N-((S)-4-hydroxy-3-oxo-1-((S)-2-oxopyrrolidin-3-yl)butan-2-yl)-5-azaspiro[2.4]heptane-6-carboxamide], the EC50 lay within 0.2 to 0.5 µM.

On to `CC(C)C[C@H](NC(=O)C(=O)Nc1ccccc1F)C(=O)N[C@@H](C[C@@H]1CCCNC1=O)C(=O)COC(=O)c1ccccc1C#N` [Compound 138, (S)-3-((S)-2-(2-((2-fluorophenyl)amino)-2-oxoacetamido)-4-methylpentanamido)-2-oxo-4-((S)-2-oxopiperidin-3-yl)butyl 2-cyanobenzoate], for which the EC50 lay in the range of 0.05 to 0.2 µM.

With `COc1cccc2[nH]c(C(=O)N[C@@H](CC(C)C)C(=O)N[C@@H](C[C@@H]3CCCNC3=O)C(=O)CO)cc12` [Compound 129, N-((S)-1-(((S)-4-hydroxy-3-oxo-1-((S)-2-oxopiperidin-3-yl)butan-2-yl)amino)-4-methyl-1-oxopentan-2-yl)-4-methoxy-1H-indole-2-carboxamide], the EC50 fell in the range of 0.5 to 1 µM.

Consider `CC(C)C[C@H](NC(=O)C(=O)NC12CCC(F)(CC1)CC2)C(=O)N[C@@H](C[C@@H]1CCCNC1=O)C(=O)CO` [Compound 135, N^1-(4-fluorobicyclo[2.2.2]octan-1-yl)-N^2-((S)-1-(((S)-4-hydroxy-3-oxo-1-((S)-2-oxopiperidin-3-yl)butan-2-yl)amino)-4-methyl-1-oxopentan-2-yl)oxalamide], for which the EC50 is above 1 µM.

On to `Cc1cccc(C)c1NC(=O)C(=O)N[C@@H](CC(C)C)C(=O)N[C@@H](C[C@@H]1CCNC1=O)C(=O)CO` [Compound 12, N^1-(2,6-dimethylphenyl)-N^2-((S)-1-(((S)-4-hydroxy-3-oxo-1-((S)-2-oxopyrrolidin-3-yl)butan-2-yl)amino)-4-methyl-1-oxopentan-2-yl)oxalamide], for which the EC50 was above 1 µM.

Consider `Cc1ccccc1NC(=O)C(=O)N[C@@H](CC1CCCCC1)C(=O)N[C@@H](C[C@@H]1CCNC1=O)C(=O)CO` [Compound 8, N^1-((S)-3-cyclohexyl-1-(((S)-4-hydroxy-3-oxo-1-((S)-2-oxopyrrolidin-3-yl)butan-2-yl)amino)-1-oxopropan-2-yl)-N^2-(o-tolyl)oxalamide], for which the EC50 is 0.2 to 0.5 µM.

`CC1(C[C@H](NC(=O)C(=O)NC(C)(C)C)C(=O)N[C@@H](C[C@@H]2CCCNC2=O)C(=O)CO)CCC1` [Compound 113, N^1-(tert-butyl)-N^2-((S)-1-(((S)-4-hydroxy-3-oxo-1-((S)-2-oxopiperidin-3-yl)butan-2-yl)amino)-3-(1-methylcyclobutyl)-1-oxopropan-2-yl)oxalamide]: the EC50 lay within 0.05 to 0.2 µM.

With `CC(C)C[C@@H](O)C(=O)N[C@@H](Cc1cccc(F)c1)C(=O)N[C@@H](C[C@@H]1CCCNC1=O)C(=O)CO` [Compound 134, (R)-N-((S)-3-(3-fluorophenyl)-1-(((S)-4-hydroxy-3-oxo-1-((S)-2-oxopiperidin-3-yl)butan-2-yl)amino)-1-oxopropan-2-yl)-2-hydroxy-4-methylpentanamide], the EC50 was above 1 µM.

In the case of `CCCCCCC(=O)OCC(=O)[C@H](C[C@@H]1CCNC1=O)NC(=O)[C@H](CC(C)C)NC(=O)C(=O)NC1CCCCC1` [Compound 18, (S)-3-((S)-2-(2-(cyclohexylamino)-2-oxoacetamido)-4-methylpentanamido)-2-oxo-4-((S)-2-oxopyrrolidin-3-yl)butyl heptanoate], the EC50 lay within 0.05 to 0.2 µM.

On to `CC(C)(C)C[C@H](NC(=O)C(=O)NC12CC(F)(C1)C2)C(=O)N[C@@H](C[C@@H]1CCCNC1=O)C(=O)CO` [Compound 94, N^1-(3-fluorobicyclo[1.1.1]pentan-1-yl)-N^2-((S)-1-(((S)-4-hydroxy-3-oxo-1-((S)-2-oxopiperidin-3-yl)butan-2-yl)amino)-4,4-dimethyl-1-oxopentan-2-yl)oxalamide], for which the EC50 was in the range of 0.05 to 0.2 µM.

In the case of `CC(C)C[C@H](NC(=O)C(=O)NC1CCCCC1)C(=O)N[C@H](C=O)C[C@@H]1CCNC1=O` [Compound 42, N^1-cyclohexyl-N^2-((S)-4-methyl-1-oxo-1-(((S)-1-oxo-3-((S)-2-oxopyrrolidin-3-yl)propan-2-yl)amino)pentan-2-yl)oxalamide], the EC50 was 0.5 to 1 µM.

For the compound `CC(C)(C)C[C@H](NC(=O)C(=O)Nc1ccc(OC(F)(F)F)cc1)C(=O)N[C@@H](C[C@@H]1CCCNC1=O)C(=O)CO` [Compound 101, N^1-((S)-1-(((S)-4-hydroxy-3-oxo-1-((S)-2-oxopiperidin-3-yl)butan-2-yl)amino)-4,4-dimethyl-1-oxopentan-2-yl)-N^2-(4-(trifluoromethoxy)phenyl)oxalamide], the EC50 is 0.05 to 0.2 µM.

Consider `CC(C)(C)NC(=O)C(=O)N1C[C@@H]2CCC[C@@H]2[C@H]1C(=O)N[C@@H](C[C@@H]1CCNC1=O)C(=O)CO` [Compound 31, (1S,3aR,6aS)-2-(2-(tert-butylamino)-2-oxoacetyl)-N-((S)-4-hydroxy-3-oxo-1-((S)-2-oxopyrrolidin-3-yl)butan-2-yl)octahydrocyclopenta[c]pyrrole-1-carboxamide], for which the EC50 was above 1 µM.

Take `CCc1cccc(CC)c1NC(=O)C(=O)N[C@@H](CC(C)C)C(=O)N[C@@H](C[C@@H]1CCCNC1=O)C(=O)CO` [Compound 28, N^1-(2,6-diethylphenyl)-N^2-((S)-1-(((S)-4-hydroxy-3-oxo-1-((S)-2-oxopiperidin-3-yl)butan-2-yl)amino)-4-methyl-1-oxopentan-2-yl)oxalamide]: the EC50 is below 0.05 µM.

Regarding `N#C[C@H](C[C@@H]1CCNC1=O)NC(=O)[C@@H]1CC2(CC2)CN1C(=O)C(=O)Nc1ccccc1F` [Compound 64, (S)-N-((S)-1-cyano-2-((S)-2-oxopyrrolidin-3-yl)ethyl)-5-(2-((2-fluorophenyl)amino)-2-oxoacetyl)-5-azaspiro[2.4]heptane-6-carboxamide], the EC50 is above 1 µM.

As for `COc1cccc2[nH]c(C(=O)N[C@@H](CC(C)C)C(=O)N[C@@H](C[C@@H]3CCNC3=O)C(=O)COC(=O)C3CCN(C4CCCCC4)CC3)cc12` [Compound 123, (S)-3-((S)-2-(4-methoxy-1H-indole-2-carboxamido)-4-methylpentanamido)-2-oxo-4-((S)-2-oxopyrrolidin-3-yl)butyl 1-cyclohexylpiperidine-4-carboxylate], the EC50 fell in the range of 0.5 to 1 µM.

As for `CC(C)CCC(=O)N1CC2(CC2)C[C@H]1C(=O)N[C@H](C#N)C[C@@H]1CCNC1=O` [Compound 117, (S)-N-((S)-1-cyano-2-((S)-2-oxopyrrolidin-3-yl)ethyl)-5-(4-methylpentanoyl)-5-azaspiro[2.4]heptane-6-carboxamide], the EC50 was above 1 µM.

Take `CC(C)(C)C[C@H](NC(=O)C(=O)Nc1ccccc1OC(F)(F)F)C(=O)N[C@@H](CC1CCCNC1=O)C(=O)CO` (some centres unmarked) [Compound 98]: the EC50 was below 0.05 µM.
